As usually defined, the Ki is the dissociation constant of the complex between target and ligand, obtained from inhibition or displacement. Higher therefore signals a looser hold on the target. Usually IC50 stands for the point on the concentration scale where inhibition reaches its midpoint. The term CC50 denotes the concentration that lowers cell viability or growth by half. A high value points to lower toxicity to the cells.

The source of these data is patent publication US9617276B2, “Compounds and methods for treating AIDS and HIV infections” (priority 2009, dated 2017).

Where two headings read alike, the source gives them in different places.

Data set [1] has as its target T1, HIV-1 protease (Human immunodeficiency virus type 1 group M subtype B, UniProt P04585).
T1 construct: A simple, continuous fluorometric assay for HIV protease
Briefly: HIV protease enzyme inhibition, fluorometric assay of Toth and Marshall. The data set is classed as biochemical. Particulars: Ki. As to the method: (§1) The inhibitory potencies of acyclic and cyclic inhibitors were measured by the assay protocol of Toth and Marshall (Toth, M. V.; Marshall, G. R. A simple, continuous fluorometric assay for HIV protease. Int. J. Pep. Protien Res. 1990, 36, 544-55).

For data set [2], the system named is HIV-1. Kind of data set: antiviral assay (IC50). The data set is classed as cell-based. The procedure: as §1
In data set [3] the test system is MT-2 cells. Briefly: cytotoxicity CC50. The data set is classed as cell-based, Human. Conditions: MT-2 cells.
The mark [4] stands for this setting: Human immunodeficiency virus 1, Table 2, read-out: IC50.
Setting [5] is: Human immunodeficiency virus 1, read-out: IC50.

On to `COc1ccc2c(c1)OCCCC=CCCCCN(CC(O)C(Cc1ccccc1)NC(=O)OC1COC3OCCC13)S2(=O)=O` (centres unmarked) [Compound 14b], for which the Ki is less than 0.7 nM in data set [1] and less than 1 nM in data set [1] (Table 2). Besides, the results for the 50% inhibitory concentration (IC50) in data set [2] (setting [4]) and in data set [2] (setting [5]) were less than 10 nM and less than 49 nM, respectively.

As to `COc1ccc2c(c1)OCCC=CCCCCN(CC(O)C(Cc1ccccc1)NC(=O)OC1COC3OCCC13)S2(=O)=O` (centres unmarked) [Compound 14c], the IC50 in data set [2] (setting [4]) is less than 10 nM; in data set [2] (Human immunodeficiency virus 1, text b167), 2 nM; in data set [2] (setting [5]) it was 2 nM.

As to `CCC[C@@]1(CCc2ccccc2)CC(O)=C([C@H](CC)c2cccc(NS(=O)(=O)c3ccc(C(F)(F)F)cn3)c2)C(=O)O1` [TPV, Tipranavir], the midpoint of cytotoxicity in data set [3], the CC50, lay at 54100 ± 2100 nM.
